Test results: PMC11600199 (JACS Au, 2024)
In brackets after ≈: the same amount, converted by molar mass.

Tests used:
[1] = Chemical stability in aqueous 1 M HCl or 1 M NaOH and on shelf storage; format: physicochemical; settings: aqueous 1 M hydrochloric acid or aqueous 1 M sodium hydroxide, room temperature, 1 day
[2] = human liver microsomes
[3] = Kinetic solubility in phosphate-buffered saline pH 7.4; settings: 25 °C, pH 7.4, aqueous buffer, kinetic from dmso stock
Experimental pKa = format: physicochemical; settings: amine hydrochlorides

SMILES: FC(F)(F)C1(c2cccnc2)CCC1 [12a]
- decomposition on treatment with acid or base [1]: did not lead to any decomposition

SMILES: CN(Cc1ccc(C(C)(C)C)cc1)Cc1cccc2ccccc12 [Butenafine]
- CLint [2]: 30 mg min^–1 μL^–1
- solubility kinetic at 2 h [3]: 10 µM (≈ 3.17 µg/mL)

SMILES: CCc1cc(C)cc(CC)c1-c1c(OC(=O)C(C)(C)C)n2n(c1=O)CCOCC2 [Pinoxaden]
- solubility kinetic at 2 h [3]: 358 µM (≈ 143 µg/mL)

SMILES: CC(C)(C)C(=O)NNCc1ccccc1 [Pivhydrazine]
- solubility kinetic at 2 h [3]: ≥ 400 µM

SMILES: CC(C)N(Cc1ccccc1)C(=O)C(C)(C)C [Tebutam]
- CLint [2]: 57 mg min^–1 μL^–1
- solubility kinetic at 2 h [3]: 324 µM (≈ 75.6 µg/mL)

SMILES: CC(C)(C)N.Cl [tert-butyl amine hydrochloride]
- pKa (exp.) (Experimental pKa): 10.69
